Data reported in patent US20150166520A1, “AMIDO-SUBSTITUTED PYRIMIDINONE DERIVATIVES USEFUL FOR THE TREATMENT OF HIV INFECTION” (MERCK SHARP & DOHME CORP., priority 2012, published 2015).

How the values were obtained:
[1] = tested on: cryopreserved hepatocytes from dog; assay: Metabolism of compounds in hepatocyte suspensions (prodrug hydrolysis), dog; type: in vitro ADME; details: prodrug 1 μM, dog hepatocytes 1×10^6 cells/mL, 37° C.
Method: (§1) Selected compounds of the present invention (1 μM) were incubated with suspensions of cryopreserved hepatocytes from rat, dog and human subjects at a cell density of 1×10^6 cells/mL. The samples were incubated for 0, 5, 15, 30, 60 and 90 minutes in a 95% humidified incubator at 37° C. with 5% CO2. At each time point, the samples were quenched with acetonitrile containing an appropriate internal standard. The samples were then vortex-mixed and centrifuged at ˜2,900×g for 30 minutes. The supernatants were transferred to clean plates and analyzed using LC-MS/MS. Following quantification of prodrug and parent in the samples, half lives of conversion (t1/2) were determined from the rates of prodrug degradation according to first-order kinetics. Conversion to active metabolite (compound 1a) was confirmed by following the formation of compound 1a.

[2] = tested on: cryopreserved hepatocytes from human; assay: Metabolism of compounds in hepatocyte suspensions (prodrug hydrolysis), human; type: in vitro ADME; details: prodrug 1 μM, human hepatocytes 1×10^6 cells/mL, 37° C.
Method: as §1

[3] = Dog pharmacokinetic study, colonic dose; type: in vivo, Male Beagle Dogs; design: AUC(0-t) / Tmax: dose or concentration left out as unconfirmed; details: for colonic absorption versus metabolite Compound 1a: Beagle dogs, colonic dosing, statement in words; for Cmax / AUC(0-t) / Tmax: male, dog, plasma, fasted Beagle dogs, Colonic, compound measured = prodrug dosed; for Cmax / AUC(0-t): mean ± SE; for AUC(0-t): read-out: AUC0-24 hr; for Tmax: median
Method: (§2) Six Male Beagle Dogs (Marshall Farms) weighing 9.0-11.6 kg were used for the studies. Studies were conducted under a protocol approved by the WP-IACUC (Animal Procedure Statement #09068544080285). […] Dosing was followed by 5 mL water rinse via oral gavage for oral dosing or with a post-dose water flush of the catheter for colonic dosing. Water was restricted for 1 hour post dose. Food was returned at 4 hours after dosing. Blood (1-mL) was drawn at pre-dose, 0.25, 0.5, 1, 2, 4, 6, 8 and 24 hours post-dosing. The plasma was separated by centrifugation (10 minutes at 2500 g) and kept frozen at −70° C. until analysis by LC-MS/MS.

[4] = tested on: cryopreserved hepatocytes from rat; assay: Metabolism of compounds in hepatocyte suspensions (prodrug hydrolysis), rat; type: in vitro ADME; details: prodrug 1 μM, rat hepatocytes 1×10^6 cells/mL, 37° C.
Method: as §1

[5] = Intravenous pharmacokinetics in Wistar-Hanover rats; type: in vivo, male Wistar-Hanover rats; details: rat, plasma; for half-life / AUC / Vd / clearance: male, Wistar-Hanover; for half-life / Vd / clearance: prodrug; for AUC / nAUC0-∞: prodrug measured; for AUC: read-out: AUC0-x; for Vd: read-out: Vdss; for clearance: read-out: Clp
Method: (§3) Selected compounds of the present invention were administered in suitable vehicles to male Wistar-Hanover rats. Intravenous (IV) administration to rats was conducted via cannulas implanted in the jugular vein. For oral administration, test compounds were administered by gavage. Blood samples were serially collected following dose administration for up to 24 hr and plasma was separated by centrifugation. The concentration of test compound in rat plasma were determined by a LC-MS/MS assay following a protein precipitation step and addition of an appropriate internal standard. Quantification was done by determining peak area-ratios of the test compound and compound 1a (the metabolite of each of the test compounds) to the internal standard. Pharmacokinetic parameters were obtained using non-compartmental methods (Watson®). The area under the plasma concentration-time curve (AUC0-t) was calculated from the first time point (0 min) up to the last time point with measurable test compound concentration using the linear trapezoidal or linear/log-linear trapezoidal rule. The IV plasma clearance was calculated by dividing the dose by AUC0-inf. The terminal half-life of elimination was determined by unweighted linear regression analysis of the log-transformed data. The time points for determination of half-life were selected by visual inspection of the data. The volume of distribution at steady state (Vdss) was obtained from the product of plasma clearance and mean residence time (determined by dividing the area under the first moment curve by the area under the curve). The maximum plasma concentration (Cmax) and the time at which maximum concentration occurred (Tmax) were obtained by inspection of the plasma concentration-time data. Absolute oral bioavailability was determined from dose-adjusted IV and P.O. AUC ratios.

[6] = Oral pharmacokinetics in Wistar-Hanover rats; type: in vivo, male Wistar-Hanover rats; details: plasma, rat; for bioavailability: oral, prodrug, from dose-adjusted IV and P.O. AUC ratios; for Tmax / AUC / Cmax / nAUC: oral gavage, prodrug measured; for AUC: read-out: AUC0-x hr
Method: as §3

[7] = Dog pharmacokinetic study, oral dose; type: in vivo; design: AUC(0-t) / Tmax: dose or concentration left out as unconfirmed; details: male, plasma, fasted Beagle dogs, compound measured = prodrug dosed; for Cmax / AUC(0-t): mean ± SE; for AUC(0-t): read-out: AUC0-24 hr; for Tmax: median
Method: as §2

[8] = male, Wistar-Hanover, read-out: Cmax

Row | SMILES | Remaining at 90 min, Dog [1] [%] | Remaining at 90 min, Human [2] [%] | Remaining at 90 min, Rat [4] [%] | half-life [5] [min] | AUC [5] [µM·h] | nAUC0-∞ [5] [µM·h] | bioavailability ([6]; male, Wistar-Hanover) [%] | Tmax ([6]; male, Wistar-Hanover) [min] | AUC ([6]; male, Wistar-Hanover) [µM·h] | Cmax [6, 8] [nM] | nAUC [6] [µM·h] | also measured
1 | CCOC(=O)OC(C)Oc1c(C(=O)NCc2ccc(F)cc2)nc(C(C)(C)NC(=O)c2nnc(C)o2)n(C)c1=O (stereo not shown) [Compound 1] | 15.94 | 19.32 | 30.30 | 9 | 0.012 | 0.012 | 3 | 15 | 0.002 | 6 | 0.0004 | colonic absorption versus metabolite Compound 1a [3]: significant increase in colonic absorption; Cmax [3]: 91 ± 25 nM; AUC(0-t) [3]: 0.083 ± 0.034 µM·h; Tmax [3]: 18 min; Cmax [7]: 212 ± 32 nM; AUC(0-t) [7]: 0.146 ± 0.033 µM·h; Tmax [7]: 18 min
2 | Cc1nnc(C(=O)NC(C)(C)c2nc(C(=O)NCc3ccc(F)cc3)c(OC(C)OC(=O)OC(C)C)c(=O)n2C)o1 (stereo not shown) [Compound 2] |  |  |  | 10.2 | 0.119 | 0.119 | 6.6 | 67.8 | 0.039 | 19 | 0.008 | Vd [5]: 2.17 L/kg; clearance [5]: 244 mL/min/kg
3 | CCCCOC(=O)OC(C)Oc1c(C(=O)NCc2ccc(F)cc2)nc(C(C)(C)NC(=O)c2nnc(C)o2)n(C)c1=O (stereo not shown) [Compound 7] | 3.31 | 2.12 | 2.72 |  |  |  |  |  |  |  |  | 
4 | Cc1nnc(C(=O)NC(C)(C)c2nc(C(=O)NCc3ccc(F)cc3)c(OC(OC(=O)OC(C)C)C(C)C)c(=O)n2C)o1 (stereo not shown) [Compound 12] | 5.97 | 14.81 | 38.75 |  |  |  |  |  |  |  |  | 
5 | CCOC(=O)OC(CC)Oc1c(C(=O)NCc2ccc(F)cc2)nc(C(C)(C)NC(=O)c2nnc(C)o2)n(C)c1=O (stereo not shown) [Compound 15] | 8.90 | 14.00 | 6.20 | 8.4 | 0.085 | 0.085 | 7 | 45 | 0.028 | 21 | 0.006 | Vd [5]: 3.48 L/kg; clearance [5]: 388 mL/min/kg
6 | Cc1nnc(C(=O)NC(C)(C)c2nc(C(=O)NCc3ccc(F)cc3)c(OCOC(=O)OC(C)C)c(=O)n2C)o1 [Compound 20] | 1.70 | 1.80 | 0.60 |  |  |  |  |  |  |  |  | 
7 | Cc1nnc(C(=O)NC(C)(C)c2nc(C(=O)NCc3ccc(F)cc3)c(OCOC(=O)C(C)(C)C)c(=O)n2C)o1 [Compound 22] | 3.21 | 4.27 | 3.58 | 2.4 | 0.012 | 0.012 |  |  |  |  |  | colonic absorption versus metabolite Compound 1a [3]: significant increase in colonic absorption; Cmax [3]: 10 ± 3 nM; AUC(0-t) [3]: 0.014 ± 0.003 µM·h; Tmax [3]: 15 min; Cmax [6]: BLQ; Cmax [7]: 8 ± 2 nM; AUC(0-t) [7]: 0.006 ± 0.002 µM·h; Tmax [7]: 30 min
8 | CC(=O)OC(Oc1c(C(=O)NCc2ccc(F)cc2)nc(C(C)(C)NC(=O)c2nnc(C)o2)n(C)c1=O)C(C)C (stereo not shown) [Compound 23] | 8.14 | 28.06 | 50.65 |  |  |  |  |  |  |  |  | 
